Inhibition data for 32 compounds are collected here from patent publication US8916599B2, “1H-benz imidazole-5-carboxamides as anti-inflammatory agents” (Orexo AB, priority 2008, dated 2014).

Molecules are shown by their SMILES.

The target of the first assay is T1, recombinant human mPGES-1 (Homo sapiens, UniProt O14684).
T1 construct: made in house; host or cells: Rosetta E. coli (microsomal/membrane fraction)
T1 sequence (O14684 1-152): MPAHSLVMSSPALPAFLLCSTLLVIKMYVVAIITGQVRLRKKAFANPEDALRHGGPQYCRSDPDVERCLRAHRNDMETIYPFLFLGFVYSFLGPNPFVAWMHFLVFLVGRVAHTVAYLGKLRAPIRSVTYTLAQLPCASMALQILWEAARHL
In words: mPGES-1 inhibition test (microsomes, PGH2 substrate, HTRF detection of PGE2). The assay is classed as biochemical. Conditions: inhibition of mPGES-1 at 1 μM (marked in cell). A digest of the protocol: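 First, inhibitor is incubated with microsomal enzyme from Rosetta E. coli in KPi pH 7.4 containing 2.5 mM GSH for 25 minutes at room temperature. Next, PGH2 is added and stopped after one minute with FeCl2 stop solution. Finally, diluted samples undergo HTRF PGE2 quantification.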
For `O=C(Nc1ccc(F)c(Cl)c1)c1ccc2[nH]c(Nc3c(Cl)cccc3Cl)nc2c1` [Example 71, 2-(2,6-Dichloro-phenylamino)-1H-benzimidazole-5-carboxylic acid (3-chloro-4-fluoro-phenyl)-amide], the inhibition (commonly the change of the read-out against control, counted positive when it falls) at 1 µM is 95%.

Staying with this assay, now noted: inhibition of mPGES-1 at 10 μM.
For the compound `CC(C)Oc1cc2[nH]c(Nc3c(Cl)ccc(Cl)c3F)nc2cc1C(=O)Nc1ccc(Br)cc1` [Example 610, 2-(3,6-Dichloro-2-fluoro-phenylamino)-N-(4-bromo-phenyl)-6-isopropoxy-1H-benzimidazole-5-carboxamide], the inhibition at 10 µM is 87%. With `Cn1c(Nc2c(Cl)cccc2Cl)nc2cc(C(=O)NC3CCCCCC3)ccc21` [Example 238, 2-(2,6-Dichloro-phenylamino)-1-methyl-1H-benzimidazole-5-carboxylic acid cycloheptylamide], the inhibition at 10 µM worked out at 100%. As for `Cc1ccnc(NC(=O)c2ccc3[nH]c(Nc4c(Cl)cccc4Cl)nc3c2)c1` [Example 116, 2-(2,6-Dichloro-phenylamino)-1H-benzimidazole-5-carboxylic acid (4-methyl-pyridin-2-yl)-amide], the inhibition at 10 µM came out at 92%.

As for `CCC1CCC(NC(=O)c2cc3nc(Nc4c(F)cccc4Cl)n(C)c3cc2F)C1` (centres unmarked) [Example 392, 2-(2-Chloro-6-fluorophenylamino)-N-(3-ethylcyclopentyl)-6-fluoro-1-methyl-1H-benzimidazole-5-carboxamide], the inhibition at 10 µM was 100%. On the same count and under the same terms, the same measure for `Cn1c(Nc2c(Cl)cccc2Cl)nc2cc(C(=O)NC3CCC(C)(C)CC3)c(F)cc21` [Example 157, 2-(2,6-Dichloro-phenylamino)-6-fluoro-1-methyl-1H-benzimidazole-5-carboxylic acid (4,4-dimethyl-cyclohexyl)-amide]: 100%; for `Cn1c(Nc2c(Cl)cccc2Cl)nc2cc(C(=O)NC3CCCC(C(F)(F)F)C3)ccc21` (centres unmarked) [Example 255, 2-(2,6-Dichloro-phenylamino)-1-methyl-1H-benzimidazole-5-carboxylic acid (3-trifluoromethyl-cyclohexyl)-amide]: 100%. Consider `O=C(Nc1cc(Cl)ccn1)c1cc2[nH]c(Nc3c(Cl)cccc3Cl)nc2cc1F` [Example 142, 2-(2,6-Dichloro-phenylamino)-6-fluoro-3H-benzimidazole-5-carboxylic acid (4-chloro-pyridin-2-yl)-amide], for which the inhibition at 10 µM came out at 100%. For the compound `O=C(Nc1cc(Cl)ccn1)c1ccc2c(c1)nc(Nc1c(Cl)cccc1Cl)n2CCN1CCCC1=O` [Example 267, 2-(2,6-Dichloro-phenylamino)-1-[2-(2-oxo-pyrrolidin-1-yl)-ethyl]-1H-benzimidazole-5-carboxylic acid (4-chloro-pyridin-2-yl)-amide], the inhibition at 10 µM was found to be 94%. As to `COc1cc2c(cc1C(=O)NC1CCCCC1)nc(Nc1c(Cl)ccc(Cl)c1F)n2C` [Example 619, 2-(3,6-Dichloro-2-fluoro-phenylamino)-6-methoxy-N-cyclohexyl-1-methyl-1H-benzimidazole-5-carboxamide], the inhibition at 10 µM turned out to be 94%. On to `O=C(Nc1nc2ccccc2[nH]1)c1ccc2[nH]c(Nc3c(Cl)cccc3Cl)nc2c1` [Example 80, 2-(2,6-Dichloro-phenylamino)-1H-benzimidazole-5-carboxylic acid (benzimidazol-2-yl)-amide], for which the inhibition at 10 µM was determined as 92%. Regarding `CCC1CCC(NC(=O)c2cc3nc(Nc4c(F)cccc4Cl)n(C)c3cc2F)CC1` (centres unmarked) [Example 362, N-(4-Ethylcyclohexyl)-2-(2-chloro-6-fluorophenylamino)-6-fluoro-1-methyl-1H-benzimidazole-5-carboxamide], the inhibition at 10 µM was 100%.

With `Cn1c(Nc2c(Cl)cccc2Cl)nc2cc(C(=O)NC3CCN(C4CC4)CC3)c(F)cc21` [Example 561, N-(1-Cyclopropylpiperidin-4-yl)-2-(2,6-dichlorophenylamino)-6-fluoro-1-methyl-1H-benzimidazole-5-carboxamide], the inhibition at 10 µM amounted to 77%. In the case of `Cn1c(Nc2c(Cl)cccc2Cl)nc2cc(C(=O)NCc3cc(C(F)(F)F)ccn3)ccc21` [Example 245, 2-(2,6-Dichloro-phenylamino)-1-methyl-1H-benzimidazole-5-carboxylic acid (4-trifluoromethyl-pyridin-2-ylmethyl)-amide], the inhibition at 10 µM was determined as 97%. As for `Cc1nc(NC(=O)c2cc3nc(Nc4c(Cl)cccc4Cl)n(C)c3cc2F)cc2c1CCCC2` [Example 131, 2-(2,6-Dichloro-phenylamino)-6-fluoro-1-methyl-1H-benzimidazole-5-carboxylic acid (1-methyl-5,6,7,8-tetrahydro-isoquinolin-3-yl)-amide], the inhibition at 10 µM was found to be 96%.

As to `CN(C)c1ccnc(NC(=O)c2ccc3c(c2)nc(Nc2c(Cl)cccc2Cl)n3C)c1` [compound 559], the inhibition at 10 µM was determined as 85%. In the case of `O=C(N[C@H]1CC[C@H](C(F)(F)F)CC1)c1cc2nc(Nc3c(Cl)ccc(Cl)c3F)[nH]c2cc1F` [Example 597, 2-(3,6-Dichloro-2-fluoro-phenylamino)-N-(trans-4-trifluoromethyl-cyclohex-1-yl)-6-fluoro-1H-benzimidazole-5-carboxamide], the inhibition at 10 µM came out at 100%. On to `Cc1cc(NC(=O)c2ccc3[nH]c(Nc4c(Cl)cccc4Cl)nc3c2)ncc1Cl` [Example 89, 2-(2,6-Dichloro-phenylamino)-1H-benzimidazol-5-carboxylic acid (5-chloro-4-methyl-pyridin-2-yl)-amide], for which the inhibition at 10 µM is 97%. As to `O=C(Nc1ccc(Br)cc1)c1cc2nc(Nc3c(Cl)ccc(Cl)c3F)[nH]c2cc1OCC(F)(F)F` [Example 593, 2-(3,6-Dichloro-2-fluoro-phenylamino)-N-(4-bromophenyl)-6-(2,2,2-trifluorethoxy)-1H-benzimidazole-5-carboxamide], the inhibition at 10 µM is 97%. For `O=C(NC1CCC2(CC1)CC2)c1cc2nc(Nc3c(Cl)ccc(Cl)c3F)[nH]c2cc1F` [Example 608, 2-(3,6-Dichloro-2-fluoro-phenylamino)-N-(spiro[2.5]oct-6-yl)-6-fluoro-1H-benzimidazole-5-carboxamide], the inhibition at 10 µM stood at 92%. `COc1cc2c(cc1C(=O)Nc1ccc(Br)cc1)nc(Nc1c(Cl)cccc1Cl)n2C` [Example 359, 2-(2,6-Dichlorophenylamino)-6-methoxy-1-methyl-N-(4-bromo-phenyl)-1H-benzimidazole-5-carboxamide]: the inhibition at 10 µM is 100%. With `CCc1ccc(C)nc1NC(=O)c1ccc2c(c1)nc(Nc1c(Cl)cccc1Cl)n2C` [Example 545, 2-(2,6-Dichlorophenylamino)-N-(3-ethyl-6-methylpyridin-2-yl)-1-methyl-1H-benzimidazole-5-carboxamide], the inhibition at 10 µM is 89%. Regarding `CCCCCNC(=O)c1cc2nc(Nc3c(Cl)cccc3Cl)n(C)c2cc1F` [Example 391, 2-(2,6-Dichlorophenylamino)-6-fluoro-1-methyl-N-pentyl-1H-benzimidazole-5-carboxamide], the inhibition at 10 µM worked out at 100%. On the same count and under the same terms, the value for `O=C(N[C@H]1CC[C@H](C(F)(F)F)CC1)c1cc2nc(Nc3c(Cl)cc(F)cc3Cl)[nH]c2cc1OCCF` [Example 584, 2-(2,6-Dichloro-4-fluoro-phenylamino)-N-(trans-4-trifluoro-cyclohex-1-yl)-6-(2-fluoroethoxy)-1H-benzimidazole-5-carboxamide] was 96%; that for `COc1cc2[nH]c(Nc3c(Cl)ccc(Cl)c3F)nc2cc1C(=O)NC1CCC2(CC1)CC2` [Example 613, 2-(3,6-Dichloro-2-fluoro-phenylamino)-N-(spiro[2.5]oct-6-yl)-6-methoxy-1H-benzimidazole-5-carboxamide] was 91%. In the case of `Cc1nc(NC(=O)c2ccc3[nH]c(Nc4c(Cl)cccc4Cl)nc3c2)ccc1Br` [Example 76, 2-(2,6-Dichloro-phenylamino)-1H-benzimidazole-5-carboxylic acid (5-bromo-6-methyl-pyridin-2-yl)-amide], the inhibition at 10 µM worked out at 97%.

`COc1cc2[nH]c(Nc3c(Cl)ccc(Cl)c3F)nc2cc1C(=O)Nc1ccc(Br)cc1` [Example 602, 2-(3,6-Dichloro-2-fluoro-phenylamino)-6-methoxy-N-(4-bromophenyl)-1H-benzimidazole-5-carboxamide]: the inhibition at 10 µM is 100%.

In the case of `O=C(NC1CCc2ccccc2C1)c1ccc2nc(Nc3c(Cl)cccc3Cl)[nH]c2c1` (centres unmarked) [Example 146, 2-(2,6-Dichloro-phenylamino)-3H-benzimidazole-5-carboxylic acid (1,2,3,4-tetrahydro-naphthalen-2-yl)-amide], the inhibition at 10 µM was found to be 97%. As for `O=C(NCc1ccncc1)c1ccc2[nH]c(Nc3c(Cl)cccc3Cl)nc2c1` [Example 236, 2-(2,6-Dichloro-phenylamino)-1H-benzimidazole-5-carboxylic acid (pyridin-4-ylmethyl)-amide], the inhibition at 10 µM is 83%.

Turning to `O=C(Nc1ccc(Br)cc1)c1ccc2[nH]c(Nc3c(Cl)cc(Cl)cc3Cl)nc2c1` [Example 107, 2-(2,4,6-Trichloro-phenylamino)-1H-benzimidazole-5-carboxylic acid (4-bromo-phenyl)-amide], the inhibition at 10 µM worked out at 99%. As for `CCOc1cc2c(cc1C(=O)NC1CCC3(CC1)CC3)nc(Nc1c(Cl)ccc(Cl)c1F)n2C` [Example 609, 2-(3,6-Dichloro-2-fluoro-phenylamino)-6-ethoxy-N-(spiro[2.5]oct-6-yl)-1-methyl-1H-benzimidazole-5-carboxamide], the inhibition at 10 µM stood at 99%.

For `CNC(=O)c1ccc(Nc2nc3cc(C(=O)Nc4ccc(Br)cc4)ccc3n2C)c(Cl)c1` [Example 540, N-(4-Bromophenyl)-2-(2-chloro-4-(methylcarbamoyl)-phenylamino)-1-methyl-1H-benzimidazole-5-carboxamide], the inhibition at 10 µM turned out to be 44%.
